Publication PMC2854646 (Oncogene, 2008)

Biological target: T1, E1 (ubiquitin-activating enzyme) (Homo sapiens, UniProt P22314)
T1 sequence (P22314 2-1058): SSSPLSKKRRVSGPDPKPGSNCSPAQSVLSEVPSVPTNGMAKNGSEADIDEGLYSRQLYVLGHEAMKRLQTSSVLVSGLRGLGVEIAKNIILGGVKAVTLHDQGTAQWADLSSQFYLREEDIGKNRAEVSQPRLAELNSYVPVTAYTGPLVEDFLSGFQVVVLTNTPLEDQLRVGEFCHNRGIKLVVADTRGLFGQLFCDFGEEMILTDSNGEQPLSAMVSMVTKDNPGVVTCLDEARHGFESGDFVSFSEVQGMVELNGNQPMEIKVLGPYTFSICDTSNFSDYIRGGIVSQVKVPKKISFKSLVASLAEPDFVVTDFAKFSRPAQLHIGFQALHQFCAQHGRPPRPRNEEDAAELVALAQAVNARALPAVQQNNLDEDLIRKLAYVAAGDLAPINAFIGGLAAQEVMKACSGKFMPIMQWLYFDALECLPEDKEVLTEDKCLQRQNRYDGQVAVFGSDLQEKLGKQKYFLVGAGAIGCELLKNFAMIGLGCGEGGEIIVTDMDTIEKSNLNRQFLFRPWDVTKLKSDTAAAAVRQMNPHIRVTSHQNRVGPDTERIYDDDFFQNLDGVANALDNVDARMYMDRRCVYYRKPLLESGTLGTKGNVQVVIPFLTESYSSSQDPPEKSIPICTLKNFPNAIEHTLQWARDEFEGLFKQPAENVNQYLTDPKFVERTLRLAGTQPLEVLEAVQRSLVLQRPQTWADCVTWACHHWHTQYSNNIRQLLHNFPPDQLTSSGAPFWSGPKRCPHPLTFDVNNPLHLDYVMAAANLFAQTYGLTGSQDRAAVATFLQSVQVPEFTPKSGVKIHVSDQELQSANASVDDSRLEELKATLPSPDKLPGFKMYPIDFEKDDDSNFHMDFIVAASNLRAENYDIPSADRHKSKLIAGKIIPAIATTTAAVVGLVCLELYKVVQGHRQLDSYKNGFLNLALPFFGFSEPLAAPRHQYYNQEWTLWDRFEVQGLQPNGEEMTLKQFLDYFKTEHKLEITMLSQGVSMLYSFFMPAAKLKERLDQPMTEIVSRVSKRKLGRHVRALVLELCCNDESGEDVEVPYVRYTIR
Assay: ubiquitin~E1 thioester immunoblot
Type: cell-based

Question: Which IC50 does the source give for `CCOC(=O)N1CCN(/[N+]([O-])=N/Oc2ccc([N+](=O)[O-])cc2[N+](=O)[O-])CC1` [JS-K, O^2-(2,4-dinitrophenyl) 1-[(4-ethoxycarbonyl)piperazin-1-yl]diazen-1-ium-1,2-diolate] here?
Answer: The IC50 was about 2000 nM.
